Measured values published in patent US6737383B1, “Herbicidal oxadiazolidines” (priority 1999, dated 2004).

Tests used:
purple nutsedge = experiment: Test B pre/postemergence purple nutsedge; assay type: in vivo, Cyperus rotundus
Outline: (§1)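 Test chemicals in a non-phytotoxic solvent mixture with surfactant were sprayed preemergence onto planted seeds and postemergence onto plants 2 to 18 cm tall (1- to 4-leaf stage). After twelve to sixteen days in a greenhouse, injury was visually rated against untreated controls from 0 (no effect) to 10 (complete control).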

bamyardgrass = experiment: Test B flood test barnyardgrass; assay type: in vivo, Echinochloa crus-galli
Outline: (§2)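 Each value is a visual injury score relative to controls, with 10 meaning complete control and 0 no effect. Evaluation took place twelve to sixteen days after the 2-leaf-stage plants were treated and kept in the greenhouse.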

velvetleaf = experiment: Test B pre/postemergence velvetleaf; assay type: in vivo, Abutilon theophrasti; conditions: for Plant response rating, Velvetleaf: Rate 250 g/ha
Outline: as §1

bedstraw = experiment: Test B pre/postemergence bedstraw; assay type: in vivo, Galium aparine
Outline: as §1

soybean = experiment: Test B pre/postemergence soybean; assay type: in vivo, Glycine max
Outline: as §1

blackgrass = experiment: Test B pre/postemergence blackgrass; assay type: in vivo, Alopecurus myosuroides
Outline: as §1

cocklebur = experiment: Test B pre/postemergence cocklebur; assay type: in vivo, Xanthium strumarium
Outline: as §1

pigweed = experiment: Test B pre/postemergence pigweed; assay type: in vivo, Amaranthus retroflexus
Outline: as §1

surinam grass = experiment: Test B pre/postemergence surinam grass; assay type: in vivo, Brachiaria decumbens
Outline: as §1

smallflower flatsedge = experiment: Test B flood test smallflower flatsedge; assay type: in vivo, Cyperus difformis
Outline: as §2

sugar beet = experiment: Test B pre/postemergence sugar beet; assay type: in vivo, Beta vulgaris; conditions: for Plant response rating, Sugarbeets: Rate 250 g/ha
Outline: as §1

corn = experiment: Test B pre/postemergence corn; assay type: in vivo, Zea mays
Outline: as §1

wheat = experiment: Test B pre/postemergence wheat; assay type: in vivo, Triticum aestivum; conditions: for Plant response rating, Wheat: Rate 250 g/ha
Outline: as §1

rape = experiment: Test B pre/postemergence rape; assay type: in vivo, Brassica napus
Outline: as §1

wild oat = experiment: Test B pre/postemergence wild oat; assay type: in vivo, Avena fatua; conditions: for Plant response rating, Wild oats: Rate 250 g/ha
Outline: as §1

crabgrass = experiment: Test B pre/postemergence crabgrass; assay type: in vivo, Digitaria sanguinalis
Outline: as §1

[1] = Postemergence, Rate 125 g/ha, scale of 0 to 10 where 0 is no effect and 10 is complete control
[2] = Postemergence, Rate 250 g/ha, scale 0 to 10, 0 no effect, 10 complete control
[3] = Preemergence, Rate 62 g/ha, scale 0 to 10 (0 no effect, 10 complete control)
[4] = Preemergence, Rate 125 g/ha, scale 0 to 10 (0 no effect, 10 complete control)
[5] = Preemergence, Rate 250 g/ha, scale of 0 to 10 where 0 is no effect and 10 is complete control
[6] = Preemergence, Rate 500 g/ha, scale 0 to 10 (0 no effect, 10 complete control)
[7] = Rate 62 g/ha, Postemergence, scale of 0 to 10 where 0 is no effect and 10 is complete control
[8] = Rate 500 g/ha, Postemergence, scale 0 to 10, 0 no effect, 10 complete control
[9] = Rate 250 g/ha, headed Pre-emergence (flood test species), scale 0 to 10 (0 no effect, 10 complete control)
[10] = Rate 500 g/ha, headed Pre-emergence (flood test species), scale 0 to 10 (0 no effect, 10 complete control)
[11] = Preemergence, Rate 125 g/ha, 0 is no effect, 10 is complete control
[12] = Preemergence, scale of 0 to 10 where 0 is no effect and 10 is complete control
[13] = Postemergence, scale 0 to 10, 0 is no effect, 10 is complete control
[14] = Postemergence, Rate 62 g/ha, scale 0 to 10, 0 is no effect, 10 is complete control
[15] = Rate 125 g/ha, Postemergence, scale 0 to 10, 0 no effect, 10 complete control
[16] = Rate 250 g/ha, Postemergence, scale 0 to 10, 0 is no effect, 10 is complete control

CCn1c(=O)on(C(=O)N(c2ccc(F)cc2)C(C)C)c1=O [Compound 107]
6: Nutsedge plant response rating (purple nutsedge; [6]) | Nutsedge plant response rating (purple nutsedge; [8]) | Corn plant response rating (corn; [8])
8: Soybean plant response rating (soybean; [6]) | Blackgrass plant response rating (blackgrass; [2]) | Blackgrass plant response rating (blackgrass; [8]) | Redroot pigweed plant response rating (pigweed; [8]) | B. signalgrass plant response rating (surinam grass; [2]) | B. signalgrass plant response rating (surinam grass; Rate 500 g/ha, Postemergence, scale of 0 to 10 where 0 is no effect and 10 is complete control) | Wheat plant response rating (wheat; [6]) | Wheat plant response rating (wheat; [8]) | Plant response rating, Rape (rape; [4]) | Rape plant response rating (rape; [8]) | Crabgrass plant response rating (crabgrass; [1]) | Crabgrass plant response rating (crabgrass; [7])
2: Plant response rating, Nutsedge (purple nutsedge; [5]) | Bedstraw plant response rating (bedstraw; [14]) | Bedstraw plant response rating (bedstraw; [3]) | Sugarbeets plant response rating (sugar beet; [1]) | Corn plant response rating (corn; [1]) | Corn plant response rating (corn; [7]) | Wheat plant response rating (wheat; [7]) | Rape plant response rating (rape; [1])
10: Velvetleaf plant response rating (0 to 10 scale) (velvetleaf; [11]) | Plant response rating, Velvetleaf (velvetleaf; [12]) | Velvetleaf plant response rating (velvetleaf; [6]) | Plant response rating, Bedstraw (bedstraw; [5]) | Bedstraw plant response rating (bedstraw; [6]) | Plant response rating, Blackgrass (blackgrass; [4]) | Plant response rating, Blackgrass (blackgrass; [5]) | Blackgrass plant response rating (blackgrass; [6]) | Redroot pigweed plant response rating (pigweed; [3]) | Plant response rating, Redroot pigweed (pigweed; [4]) | Plant response rating, Redroot pigweed (pigweed; [5]) | Redroot pigweed plant response rating (pigweed; [6]) | Plant response rating, B. signalgrass (surinam grass; [5]) | B. signalgrass plant response rating (surinam grass; [6]) | Plant response rating, Sugarbeets (sugar beet; [12]) | Sugarbeets plant response rating (sugar beet; [6]) | Rape plant response rating (rape; [6]) | Plant response rating, Wild oats (wild oat; [12]) | Wild oats plant response rating (wild oat; [6]) | Crabgrass plant response rating (crabgrass; [3]) | Plant response rating, Crabgrass (crabgrass; [4]) | Plant response rating, Crabgrass (crabgrass; [5]) | Crabgrass plant response rating (crabgrass; [6])
0: Nutsedge plant response rating (purple nutsedge; [3]) | Plant response rating, Nutsedge (purple nutsedge; [4]) | Barnyardgrass plant response rating (bamyardgrass; [9]) | Plant response rating, Barnyardgrass (bamyardgrass; [10]) | Barnyardgrass plant response rating (bamyardgrass; Rate 1000 g/ha, Pre-emergence (as headed), scale 0 to 10) | Barnyardgrass plant response rating (bamyardgrass; Rate 2000 g/ha, Pre-emergence (as headed), scale 0 to 10, 0 no effect, 10 complete control) | Soybean plant response rating (soybean; [3]) | Cocklebur plant response rating (cocklebur; [1]) | Cocklebur plant response rating (cocklebur; [3]) | Plant response rating, Cocklebur (cocklebur; [4]) | Plant response rating, Cocklebur (cocklebur; [5]) | Cocklebur plant response rating (cocklebur; [6]) | Cocklebur plant response rating (cocklebur; [7]) | Redroot pigweed plant response rating (pigweed; [1]) | Redroot pigweed plant response rating (pigweed; [7]) | S. Flatsedge plant response rating (smallflower flatsedge; Pre-emergence, Rate 1000 g/ha, scale 0 to 10 (0 no effect, 10 complete control)) | S. Flatsedge plant response rating (smallflower flatsedge; [9]) | Plant response rating, S. Flatsedge (smallflower flatsedge; [10]) | Sugarbeets plant response rating (sugar beet; [7]) | Wheat plant response rating (wheat; [3]) | Rape plant response rating (rape; [7]) | Wild oats plant response rating (wild oat; [7])
1: Cocklebur plant response rating (cocklebur; [2])
4: Velvetleaf plant response rating (velvetleaf; [7]) | Bedstraw plant response rating (bedstraw; [2]) | Soybean plant response rating (soybean; [1]) | Plant response rating, Soybean (soybean; [16]) | Sugarbeets plant response rating (sugar beet; [3]) | Corn plant response rating (corn; [3])
5: Nutsedge plant response rating (purple nutsedge; [2]) | Velvetleaf plant response rating (velvetleaf; [1]) | Plant response rating, Velvetleaf (velvetleaf; [13]) | Plant response rating, Soybean (soybean; [5]) | Soybean plant response rating (soybean; [8]) | Plant response rating, Redroot pigweed (pigweed; [16]) | B. signalgrass plant response rating (surinam grass; [3]) | S. Flatsedge plant response rating (smallflower flatsedge; Rate 2000 g/ha, Pre-emergence (as headed), scale 0 to 10) | Plant response rating, Sugarbeets (sugar beet; [13]) | Corn plant response rating (corn; [2]) | Wheat plant response rating (wheat; [1]) | Wheat plant response rating (0 to 10 scale) (wheat; [11]) | Plant response rating, Wild oats (wild oat; [13])
9: Bedstraw plant response rating (bedstraw; [8]) | Blackgrass plant response rating (blackgrass; [3]) | Plant response rating, Corn (corn; [5]) | Corn plant response rating (corn; [6]) | Plant response rating, Rape (rape; [5]) | Wild oats plant response rating (wild oat; [3]) | Wild oats plant response rating (0 to 10 scale) (wild oat; [11]) | Wild oats plant response rating (wild oat; [8]) | Crabgrass plant response rating (crabgrass; [2]) | Crabgrass plant response rating (crabgrass; [8])
3: Nutsedge plant response rating (purple nutsedge; [1]) | Nutsedge plant response rating (purple nutsedge; [7]) | Bedstraw plant response rating (bedstraw; [15]) | Plant response rating, Soybean (soybean; [4]) | Soybean plant response rating (soybean; [7]) | Cocklebur plant response rating (cocklebur; [8]) | Rape plant response rating (rape; [2]) | Rape plant response rating (rape; [3]) | Wild oats plant response rating (wild oat; [1])
7: Velvetleaf plant response rating (velvetleaf; [3]) | Velvetleaf plant response rating (velvetleaf; [8]) | Plant response rating, Bedstraw (bedstraw; [4]) | Blackgrass plant response rating (blackgrass; [1]) | Blackgrass plant response rating (blackgrass; [7]) | B. signalgrass plant response rating (surinam grass; [14]) | Plant response rating, B. signalgrass (surinam grass; [4]) | B. signalgrass plant response rating (surinam grass; [15]) | Sugarbeets plant response rating (0 to 10 scale) (sugar beet; [11]) | Sugarbeets plant response rating (sugar beet; [8]) | Plant response rating, Corn (corn; [4]) | Plant response rating, Wheat (wheat; [12]) | Plant response rating, Wheat (wheat; [13])
